Laboratory results from article PMC8389922, “First-in-Class Cyclic Temporin L Analogue: Design, Synthesis, and Antimicrobial Assessment” (Journal of Medicinal Chemistry, 2021).
Converted amounts (≈) assume the structure as drawn. Bridge positions count the residues as written; N and C are the ends. Square brackets hold non-standard residues; d marks the D form. Triazole bridges read from a SMILES are 1,4-linked. Peptide text beside a SMILES is read from it. dLys(N3) = [N-]=[N+]=NCCCC[C@@H](N)C(=O)O; Lys(N3) = [N-]=[N+]=NCCCC[C@H](N)C(=O)O; dPra = C#CC[C@@H](N)C(=O)O; Pra = C#CC[C@H](N)C(=O)O

Experiments:
[1] = test system: S. epidermidis ATCC 12228; assay type: cell-based, Staphylococcus epidermidis
Procedure: (§1) The antimicrobial activity of peptides 9–26 was assessed against a range of reference bacterial strains such as S. aureus ATCC 25923, Staphylococcus epidermidis ATCC 12228, Bacillus megaterium Bm11, E. coli ATCC 25922, P. aeruginosa ATCC 27853, and A. baumannii ATCC 19606 by the broth microdilution assay to determine the minimal growth inhibitory concentration (MIC, Table 1).[59] First, we evaluated the effects produced by the lactam bridge between Lys and Glu residues placed at different positions along the peptide sequence of reference 9. […] When the i,i+7 cyclization strategy was applied (20–23), a dramatic decrease of bacterial inhibition activity was observed. Specifically, the peptides 20, 22, and 23 only affected the microbial growth of the Gram-positive B. megaterium Bm11, at 12.5 μM. […] Peptide 25, which differs from 9 by the presence of an olefin bridge rather than lactam one, dramatically lost the activity (MIC > 100 μM) vs both Gram-positive and Gram-negative strains.
(§2) The determination of MICs was conducted as previously reported.[61] Aliquots of 50 μL of bacterial culture appropriately diluted were added to each well of a 96-well plate to reach a final cell density of 1 × 10^6 CFU/mL and a final peptide concentration ranging from 100 to 0.78 μM (final volume 100 μL).

[2] = test system: E. coli ATCC 25922; assay type: cell-based, Escherichia coli
Procedure: as §1, §2

[3] = test system: B. megaterium Bm11; assay type: cell-based, Bacillus megaterium
Procedure: as §1, §2

[4] = test system: A. baumannii ATCC 19606; assay type: cell-based, Acinetobacter baumannii
Procedure: as §1, §2

[5] = test system: S. aureus ATCC 25923; assay type: cell-based, Staphylococcus aureus
Procedure: as §1, §2

[6] = test system: P. aeruginosa ATCC 27853; assay type: cell-based, Pseudomonas aeruginosa
Procedure: as §1, §2

Row | MIC S. epidermidis ATCC 12228 [1] [µM] | MIC E. coli ATCC 25922 [2] [µM] | MIC B. megaterium Bm11 [3] [µM] | MIC A. baumannii ATCC 19606 [4] [µM] | MIC S. aureus ATCC 25923 [5] [µM] | MIC P. aeruginosa ATCC 27853 [6] [µM] | Compound
1 | >100 | >100 | 50 (≈ 81.1 µg/mL) | >100 | >100 | >100 | CC[C@H](C)[C@@H]1NC(=O)[C@H](CCCNC(=N)N)NC(=O)CNC(=O)[C@H](NC(=O)[C@H](Cc2ccccc2)NC(=O)[C@H](CCCCN)NC(=O)[C@H](CO)NC(=O)[C@H](Cc2ccccc2)NC(=O)[C@H](Cc2c[nH]c3ccccc23)NC(=O)[C@@H]2CCCN2C(=O)[C@@H](NC(=O)[C@@H](N)Cc2ccccc2)C(C)C)CCCCNC(=O)CC[C@@H](C(N)=O)NC1=O [compound 10]
2 | >100 | >100 | 50 (≈ 79.4 µg/mL) | >100 | >100 | >100 | CC(C)C[C@H](NC(=O)[C@@H]1CCC(=O)NCCCC[C@H](NC(=O)[C@H](CCCCN)NC(=O)[C@H](CO)NC(=O)[C@H](Cc2ccccc2)NC(=O)[C@H](Cc2c[nH]c3ccccc23)NC(=O)[C@@H]2CCCN2C(=O)[C@@H](NC(=O)[C@@H](N)Cc2ccccc2)C(C)C)C(=O)N[C@H](CC(C)C)C(=O)NCC(=O)N[C@@H](CCCNC(=N)N)C(=O)N1)C(N)=O [compound 11] (H-FVPWFSKK[dL]GREL-NH2; lactam 8-12)
3 | >100 | >100 | 100 (≈ 159 µg/mL) | >100 | >100 | >100 | CC[C@H](C)[C@H](NC(=O)[C@H](CCCNC(=N)N)NC(=O)CNC(=O)[C@H]1CCC(=O)NCCCC[C@H](NC(=O)[C@H](Cc2c[nH]c3ccccc23)NC(=O)[C@@H]2CCCN2C(=O)[C@@H](NC(=O)[C@@H](N)Cc2ccccc2)C(C)C)C(=O)N[C@@H](CO)C(=O)N[C@@H](CCCCN)C(=O)N[C@@H](Cc2ccccc2)C(=O)N1)C(=O)N[C@@H](CC(C)C)C(N)=O [compound 13] (H-FVPWKSKF[dE]GRIL-NH2; lactam 5-9)
4 | >100 | >100 | >100 | >100 | >100 | >100 | CC[C@H](C)[C@H](NC(=O)[C@H](CCCNC(=N)N)NC(=O)CNC(=O)[C@@H](CC(C)C)NC(=O)[C@@H]1CCC(=O)NCCCC[C@H](NC(=O)[C@@H]2CCCN2C(=O)[C@@H](NC(=O)[C@@H](N)Cc2ccccc2)C(C)C)C(=O)N[C@@H](Cc2ccccc2)C(=O)N[C@@H](CO)C(=O)N[C@@H](CCCCN)C(=O)N1)C(=O)N[C@@H](CC(C)C)C(N)=O [compound 14] (H-FVPKFSKE[dL]GRIL-NH2; lactam 4-8)
5 | >100 | >100 | 25 (≈ 40.8 µg/mL) | 100 (≈ 163 µg/mL) | >100 | >100 | CC[C@H](C)[C@@H]1NC(=O)[C@H](CCCNC(=N)N)NC(=O)CNC(=O)[C@H](NC(=O)[C@H](Cc2ccccc2)NC(=O)[C@H](CCCCN)NC(=O)[C@H](CO)NC(=O)[C@H](Cc2ccccc2)NC(=O)[C@H](Cc2c[nH]c3ccccc23)NC(=O)[C@@H]2CCCN2C(=O)[C@@H](NC(=O)[C@@H](N)Cc2ccccc2)C(C)C)Cc2cn(nn2)CCCC[C@@H](C(N)=O)NC1=O [compound 15] (H-FVPWFSKF[dPra]GRI[Lys(N3)]-NH2; triazole 9-13)
6 | >100 | 50 (≈ 79.9 µg/mL) | 25 (≈ 39.9 µg/mL) | 25 (≈ 39.9 µg/mL) | >100 | >100 | CC(C)C[C@H](NC(=O)[C@@H]1CCCCn2cc(nn2)C[C@H](NC(=O)[C@H](CCCCN)NC(=O)[C@H](CO)NC(=O)[C@H](Cc2ccccc2)NC(=O)[C@H](Cc2c[nH]c3ccccc23)NC(=O)[C@@H]2CCCN2C(=O)[C@@H](NC(=O)[C@@H](N)Cc2ccccc2)C(C)C)C(=O)N[C@H](CC(C)C)C(=O)NCC(=O)N[C@@H](CCCNC(=N)N)C(=O)N1)C(N)=O [compound 16] (H-FVPWFSK[Pra][dL]GR[Lys(N3)]L-NH2; triazole 8-12)
7 | >100 | 100 (≈ 160 µg/mL) | 6.25 (≈ 9.99 µg/mL) | 100 (≈ 160 µg/mL) | >100 | >100 | CC[C@H](C)[C@H](NC(=O)[C@H](CCCNC(=N)N)NC(=O)CNC(=O)[C@H]1CCCCn2cc(nn2)C[C@H](NC(=O)[C@H](Cc2c[nH]c3ccccc23)NC(=O)[C@@H]2CCCN2C(=O)[C@@H](NC(=O)[C@@H](N)Cc2ccccc2)C(C)C)C(=O)N[C@@H](CO)C(=O)N[C@@H](CCCCN)C(=O)N[C@@H](Cc2ccccc2)C(=O)N1)C(=O)N[C@@H](CC(C)C)C(N)=O [compound 18] (H-FVPW[Pra]SKF[dLys(N3)]GRIL-NH2; triazole 5-9)
8 | >100 | >100 | 12.5 (≈ 19.1 µg/mL) | >100 | >100 | >100 | CC[C@H](C)[C@H](NC(=O)[C@H](CCCNC(=N)N)NC(=O)CNC(=O)[C@@H](CC(C)C)NC(=O)[C@@H]1CCCCn2cc(nn2)C[C@H](NC(=O)[C@@H]2CCCN2C(=O)[C@@H](NC(=O)[C@@H](N)Cc2ccccc2)C(C)C)C(=O)N[C@@H](Cc2ccccc2)C(=O)N[C@@H](CO)C(=O)N[C@@H](CCCCN)C(=O)N1)C(=O)N[C@@H](CC(C)C)C(N)=O [compound 19] (H-FVP[Pra]FSK[Lys(N3)][dL]GRIL-NH2; triazole 4-8)
9 | >100 | >100 | 12.5 (≈ 20.6 µg/mL) | >100 | >100 | >100 | CC[C@H](C)[C@@H]1NC(=O)[C@H](CCCNC(=N)N)NC(=O)CNC(=O)[C@@H](CC(C)C)NC(=O)[C@H](Cc2ccccc2)NC(=O)[C@H](CCCCN)NC(=O)[C@@H](NC(=O)[C@H](Cc2ccccc2)NC(=O)[C@H](Cc2c[nH]c3ccccc23)NC(=O)[C@@H]2CCCN2C(=O)[C@@H](NC(=O)[C@@H](N)Cc2ccccc2)C(C)C)CCCCNC(=O)CC[C@@H](C(N)=O)NC1=O [compound 20] (H-FVPWFKKF[dL]GRIE-NH2; lactam 6-13)
10 | >100 | >100 | 100 (≈ 159 µg/mL) | >100 | >100 | >100 | CC(C)C[C@H](NC(=O)[C@@H]1CCC(=O)NCCCC[C@H](NC(=O)[C@H](Cc2c[nH]c3ccccc23)NC(=O)[C@@H]2CCCN2C(=O)[C@@H](NC(=O)[C@@H](N)Cc2ccccc2)C(C)C)C(=O)N[C@@H](CO)C(=O)N[C@@H](CCCCN)C(=O)N[C@@H](Cc2ccccc2)C(=O)N[C@H](CC(C)C)C(=O)NCC(=O)N[C@@H](CCCNC(=N)N)C(=O)N1)C(N)=O [compound 21] (H-FVPWKSKF[dL]GREL-NH2; lactam 5-12)
